# Where a name gives a salt, the structure may show the parent alone.
# Tests used:
# [1] = target: type L calcium channels; experiment: Binding: displacement of [3H] D888 at the Ca2+ channel; conditions: read-out: K0.5 (50% of specifically fixed radioactivity displaced)
# [2] = target: T1, type L Ca^2+ channel (Rattus norvegicus, UniProt P22002); experiment: Inhibition of 45Ca2+ influx through the Ca2+ channel in A7 r5 cells; format: cell-based; conditions: 45Ca2+ influx, A7 r5 cells; read-out: K0.5 (50% of 45Ca2+ influx inhibited)
# T1 construct: cell lines from the aorta of newly born rats; host or cells: A7 r5
# [3] = system: human LDL's; experiment: Oxidative modification of human LDL's by copper sulphate (MDA production); format: biochemical; conditions: for IC50: read-out: IC50 (reduction of MDA production by 50%), Cu2+ (copper sulphate 5×10^-6 M), 24 hours
# Procedure: Human LDL's are incubated for 24 hours in the presence of copper sulphate (5×10^-6 M) and in the absence or in the presence of the test compounds (10^-7 M to 10^-4 M).
# After incubation, the peroxidation of the LDL's is evaluated by agar gel electrophoresis and by the formation of one of the products of lipid peroxidation: malondialdehyde (MDA) (Parthasarathy S., Young S. G., Witztum J. L., Pittman R. C. and Steinberg D.; J. Clin. Invest. 77, 641-644, 1986).
# [4] = target: Alpha adrenergic α2; experiment: Binding to neurotransmitter receptors: alpha2 adrenergic ([3H] Rauwolscine); conditions: α2, [3H] Rauwolscine; read-out: K0.5
# [5] = system: cardiac cells; experiment: Oxidative necrosis of cardiac cells induced by hypoxanthine/xanthine oxidase (α-HBDH release); format: cell-based, rat; conditions: for necrosis index / activity at 10 µM / activity at 1 µM / activity at 0.1 µM: XO + HX, control XO + HX = 100, mean ±SD; for necrosis index: 240 min; for activity at 10 µM / activity at 1 µM / activity at 0.1 µM / inhibition at 1 µM: Rattus norvegicus, Cardiomyocyte, 4 h; for activity at 10 µM / activity at 1 µM / activity at 0.1 µM: read-out: necrosis index; for inhibition at 1 µM: from 10^-6 M, read-out: reduction of oxidative necrosis of the cardiomyocytes
# Procedure: Cardiac cells of newly born rats are used between the 5th and 7th day following culturing. Oxidative necrosis is induced by the enzymatic production system of hypoxanthine free radicals (HX, 1 mM) and xanthine oxidase (XO, 10 mU/ml). The necrosis is evaluated 4 hours after the addition of XO/HX by measuring by spectrophotometry the cytosolic α-hydroxybutyrate dehydrogenase (α-HBDH) activity released into the supernatant liquor. Two reference molecules (Probucol, vitamin E) and two molecules representative of the present invention (corresponding to Examples 13 and 19) were tested. The cells are treated with the molecules 16 hours and 1 hour before the start of the experiment after renewal of the medium. At the start of the experiment, the treatment is repeated one last time.
# The necrosis index 100 corresponds to the release of 46.7±5.3% of the cytosolic content of α-HBDH into the supernatant liquor in 4 hours.
# The results are expressed as the mean ±SD (2<n≤4, 3 to 4 repetitions per experiment).
# [6] = target: T2, type L calcium channels (Oryctolagus cuniculus, UniProt P07293); experiment: Binding: displacement of [3H] PN 200-110 at the Ca2+ channel
# T2 construct: microsomal fractions enriched with type L calcium channels; from tissue; host or cells: microsomal fractions
# T2 sequence (P07293 whole entry): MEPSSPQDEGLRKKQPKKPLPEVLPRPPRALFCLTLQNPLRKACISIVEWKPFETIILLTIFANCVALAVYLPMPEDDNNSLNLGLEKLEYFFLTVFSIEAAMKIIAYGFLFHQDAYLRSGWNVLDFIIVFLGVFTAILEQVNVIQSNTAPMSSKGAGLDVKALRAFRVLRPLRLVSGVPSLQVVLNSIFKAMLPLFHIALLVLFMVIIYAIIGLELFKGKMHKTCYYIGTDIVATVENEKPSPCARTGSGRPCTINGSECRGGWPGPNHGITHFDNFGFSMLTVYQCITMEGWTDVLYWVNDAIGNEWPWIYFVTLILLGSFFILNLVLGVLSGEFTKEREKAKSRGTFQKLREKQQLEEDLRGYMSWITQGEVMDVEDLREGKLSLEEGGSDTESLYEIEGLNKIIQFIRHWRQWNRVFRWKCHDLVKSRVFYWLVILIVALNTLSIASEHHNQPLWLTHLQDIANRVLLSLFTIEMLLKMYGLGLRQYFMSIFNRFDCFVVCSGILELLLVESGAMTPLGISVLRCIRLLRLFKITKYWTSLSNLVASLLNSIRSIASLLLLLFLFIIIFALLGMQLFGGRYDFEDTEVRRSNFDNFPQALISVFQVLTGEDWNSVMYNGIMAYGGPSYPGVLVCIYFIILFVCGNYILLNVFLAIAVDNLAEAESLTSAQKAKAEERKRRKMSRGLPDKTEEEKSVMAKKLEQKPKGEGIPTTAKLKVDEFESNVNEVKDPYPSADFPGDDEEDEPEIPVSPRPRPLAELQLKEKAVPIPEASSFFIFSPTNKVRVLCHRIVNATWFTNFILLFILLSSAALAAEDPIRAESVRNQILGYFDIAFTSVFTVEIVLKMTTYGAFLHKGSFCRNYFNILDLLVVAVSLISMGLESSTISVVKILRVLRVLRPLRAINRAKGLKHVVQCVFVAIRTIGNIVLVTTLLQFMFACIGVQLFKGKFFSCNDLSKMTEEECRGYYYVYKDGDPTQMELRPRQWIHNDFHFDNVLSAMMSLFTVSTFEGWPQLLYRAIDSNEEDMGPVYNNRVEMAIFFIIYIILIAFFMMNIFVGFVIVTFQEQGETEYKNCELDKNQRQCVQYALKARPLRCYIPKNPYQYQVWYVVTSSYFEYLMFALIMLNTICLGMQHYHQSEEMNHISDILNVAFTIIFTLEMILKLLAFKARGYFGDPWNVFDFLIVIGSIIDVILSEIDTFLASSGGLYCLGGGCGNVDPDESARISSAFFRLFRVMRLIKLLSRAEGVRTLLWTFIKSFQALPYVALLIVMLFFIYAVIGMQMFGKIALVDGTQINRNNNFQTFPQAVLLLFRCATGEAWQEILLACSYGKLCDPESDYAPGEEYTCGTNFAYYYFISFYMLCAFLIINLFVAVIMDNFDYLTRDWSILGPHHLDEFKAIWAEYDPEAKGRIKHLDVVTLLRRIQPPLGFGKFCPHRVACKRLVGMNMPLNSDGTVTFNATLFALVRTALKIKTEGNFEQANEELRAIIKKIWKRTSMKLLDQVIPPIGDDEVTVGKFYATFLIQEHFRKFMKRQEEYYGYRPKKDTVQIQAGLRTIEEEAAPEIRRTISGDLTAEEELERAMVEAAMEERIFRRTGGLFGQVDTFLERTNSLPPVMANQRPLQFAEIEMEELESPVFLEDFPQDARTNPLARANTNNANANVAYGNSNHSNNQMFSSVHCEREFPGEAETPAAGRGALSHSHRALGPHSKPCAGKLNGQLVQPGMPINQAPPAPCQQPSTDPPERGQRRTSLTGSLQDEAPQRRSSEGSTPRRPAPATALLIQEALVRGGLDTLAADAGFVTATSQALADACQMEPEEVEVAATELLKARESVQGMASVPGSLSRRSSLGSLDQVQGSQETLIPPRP
# T2 sequence (P13806 27-960 partner limits assumed): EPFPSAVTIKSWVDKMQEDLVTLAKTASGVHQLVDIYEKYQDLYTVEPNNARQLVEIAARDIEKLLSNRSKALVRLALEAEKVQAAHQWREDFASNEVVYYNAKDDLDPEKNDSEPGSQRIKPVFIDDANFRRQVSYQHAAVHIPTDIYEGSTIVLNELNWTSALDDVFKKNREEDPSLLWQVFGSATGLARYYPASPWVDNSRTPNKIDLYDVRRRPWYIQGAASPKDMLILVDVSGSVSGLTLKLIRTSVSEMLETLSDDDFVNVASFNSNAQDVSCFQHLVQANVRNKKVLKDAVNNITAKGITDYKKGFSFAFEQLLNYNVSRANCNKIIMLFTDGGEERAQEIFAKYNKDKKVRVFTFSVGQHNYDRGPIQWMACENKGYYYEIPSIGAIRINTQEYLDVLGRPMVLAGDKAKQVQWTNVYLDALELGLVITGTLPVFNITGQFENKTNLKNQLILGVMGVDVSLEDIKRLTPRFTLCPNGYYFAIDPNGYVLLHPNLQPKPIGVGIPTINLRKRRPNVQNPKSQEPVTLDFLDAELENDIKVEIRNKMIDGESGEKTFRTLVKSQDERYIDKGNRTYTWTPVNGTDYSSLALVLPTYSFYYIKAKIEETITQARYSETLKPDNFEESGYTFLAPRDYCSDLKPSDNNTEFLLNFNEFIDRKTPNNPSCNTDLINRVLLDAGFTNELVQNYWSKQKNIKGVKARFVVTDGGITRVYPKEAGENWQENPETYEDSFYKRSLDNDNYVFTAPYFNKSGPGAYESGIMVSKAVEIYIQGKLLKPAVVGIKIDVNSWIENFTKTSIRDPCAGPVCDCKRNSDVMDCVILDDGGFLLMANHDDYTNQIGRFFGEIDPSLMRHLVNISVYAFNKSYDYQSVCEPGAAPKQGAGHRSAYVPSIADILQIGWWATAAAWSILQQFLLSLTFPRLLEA
# T2 sequence (P13806 961-1106 partner limits assumed): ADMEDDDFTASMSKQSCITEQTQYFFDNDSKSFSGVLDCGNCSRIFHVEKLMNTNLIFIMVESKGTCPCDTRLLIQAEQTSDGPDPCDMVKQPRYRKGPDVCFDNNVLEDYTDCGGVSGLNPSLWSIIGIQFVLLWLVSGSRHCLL
# T2 sequence (P19517 whole entry partner): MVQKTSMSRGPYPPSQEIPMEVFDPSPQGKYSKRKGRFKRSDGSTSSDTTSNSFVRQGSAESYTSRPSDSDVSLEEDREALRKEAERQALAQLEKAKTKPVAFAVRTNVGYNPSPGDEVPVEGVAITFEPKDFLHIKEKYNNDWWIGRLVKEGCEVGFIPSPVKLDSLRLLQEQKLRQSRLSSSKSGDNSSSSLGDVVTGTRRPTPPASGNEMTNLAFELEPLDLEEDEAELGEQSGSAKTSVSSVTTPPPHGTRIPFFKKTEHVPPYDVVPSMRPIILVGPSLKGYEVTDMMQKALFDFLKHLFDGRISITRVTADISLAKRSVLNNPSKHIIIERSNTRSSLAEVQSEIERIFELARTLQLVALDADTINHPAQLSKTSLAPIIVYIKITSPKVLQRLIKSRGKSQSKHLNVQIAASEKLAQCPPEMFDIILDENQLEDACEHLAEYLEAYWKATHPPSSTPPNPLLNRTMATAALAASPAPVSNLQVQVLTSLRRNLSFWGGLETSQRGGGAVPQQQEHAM
# T2 sequence (P19518 whole entry partner): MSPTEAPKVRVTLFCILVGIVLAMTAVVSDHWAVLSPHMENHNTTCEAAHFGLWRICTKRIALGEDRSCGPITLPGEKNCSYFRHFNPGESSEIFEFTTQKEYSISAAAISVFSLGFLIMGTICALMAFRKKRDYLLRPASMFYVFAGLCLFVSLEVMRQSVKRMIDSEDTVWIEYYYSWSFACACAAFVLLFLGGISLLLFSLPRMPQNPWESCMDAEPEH
# [7] = system: cardiac cells; experiment: Protection of cardiac cells from necrosis induced by intracellular acidosis (αHBDH release); format: cell-based, rat; conditions: Rattus norvegicus, Cardiomyocyte
# Procedure: a) Cardiac cells: the cardiac cells are prepared from the hearts of newly born (3 days) Wistar rats in accordance with the technique of RENAUD JF., MEAUX JP., ROMEY G., SCHMID A., LAZDUNSKI M., Activation of the voltage-dependent Ca^2+ channels in rat heart cells by dihydropyridine derivative--Biochem. Biophys. Res. Commun., 125, 405-412 (1984).
# The cardiomyocytes are isolated from the ventricles by enzymatic dissociation and cultured at 185,000 cells/cm^2. The cells are kept at 37° C. under an air/CO2 atmosphere (95 V/5 V) saturated with water. The cardiomyocytes are used between the 3rd and 8th day following culturing.
# Intracellular acidosis is induced in accordance with the conditions published by RENAUD JF., Internal pH Na^+ and Ca^2+ regulation by trimetazidine during cardiac cell acidosis. Cardiovasc. Drugs and Ther., 1, 667-686 (1988) in the presence or absence of the products to be tested. Cellular necrosis is evaluated by measuring by spectrophotometry using the Boerhinger 124800 kit the kinetics of the release of a cytosolic enzyme α-hydroxybutyrate dehydrogenase (αHBDH) into the extracellular medium.
# The signal measured corresponds to the amplitude of the necrosis induced by the acidosis. The values are the means ±SD. The number of experiments is indicated in parentheses.
# [8] = target: Beta adrenergic β; experiment: Binding to neurotransmitter receptors: beta adrenergic ([3H] DHA); conditions: read-out: K0.5
# [9] = read-out: amplitude of the necrosis induced by the acidosis
molecule,measurement,setting,value
"COc1cccc(CCN(C)CCCC(C#N)(c2ccc(OC)c(OC)c2)C(C)C)c1 (centres unmarked) [Example D888, reference compound]",IC50,[1],2.5 nM
same,IC50,[2],23 nM
"COc1ccc(CSC2CCN(CCCCCOc3cc(C(C)(C)C)c(O)c(C(C)(C)C)c3)CC2)c(OC)c1OC [Example 21, 4-(2,3,4-trimethoxybenzylthio)-1-[5-(3,5-di-tert.-butyl-4-hydroxyphenoxy)pentyl]piperidine]",IC50,[3],800 nM
"COc1ccc(CSC2CCN(CCCOc3cc(C(C)(C)C)c(O)c(C(C)(C)C)c3)CC2)c(OC)c1OC [Example 14, 4-(2,3,4-trimethoxybenzylthio)-1-[3-(3,5-di-tert.-butyl-4-hydroxyphenoxy)propyl]piperidine]",IC50,[3],1000 nM
"COC(=O)[C@@H]1[C@H]2C[C@H]3c4[nH]c5ccccc5c4CCN3C[C@@H]2CC[C@@H]1O [Yohimbine, reference compound]",IC50,[4],31 nM
vitamin E [reference compound],necrosis index,"[5]; 10^-5 M, 10 µM",54.9 ± 11.3
same,necrosis index,"[5]; 10^-6 M, 1 µM",87.6 ± 5.7
same,necrosis index,"[5]; 10^-7 M, 0.1 µM",97.1 ± 2.6
same,IC50,[3],> 100000 nM
"COc1ccc(CSC2CCN(CCCCCSc3cc(C(C)(C)C)c(O)c(C(C)(C)C)c3)CC2)c(OC)c1OC [Example 20, 4-(2,3,4-trimethoxybenzylthio)-1-[5-(3,5-di-tert.butyl-4-hydroxyphenylthio)pentyl]piperidine]",IC50,[3],1000 nM
"COc1ccc(CSC2CCN(CCCSc3cc(C(C)(C)C)c(O)c(C(C)(C)C)c3)CC2)c(OC)c1OC [Example 18, 4-(2,3,4-trimethoxybenzylthio)-1-[3-(3,5-di-tert.butyl-4-hydroxyphenylthio)propyl]piperidine]",IC50,[3],2000 nM
"COc1ccc(CN2CCNCC2)c(OC)c1OC [Trimetazidine, 2 HCl, trimetazidine dihydrochloride, reference compound]",IC50,[6],> 100000 nM
same,IC50,[1],> 100000 nM
same,activity at 20 µM,[7]; [9],94.6%
same,activity at 100 µM,[7]; [9],75.8%
same,activity at 500 µM,[7]; [9],58.3%
same,inhibition at 500 µM,[7]; read-out: protection of cell population subjected to intracellular acidosis,42%
same,IC50,[8],> 100000 nM
"COc1ccc(CSC2CCN(CC(O)CSc3cc(C(C)(C)C)c(O)c(C(C)(C)C)c3)CC2)c(OC)c1OC (centres unmarked) [Example 16, 4-(2,3,4-trimethoxybenzylthio)-1-[3-(3,5-di-tert.-butyl-4-hydroxyphenylthio)-2-hydroxypropyl]piperidine]",IC50,[3],3000 nM
"COc1ccc(CSC2CCN(CC(O)COc3cc(C(C)(C)C)c(O)c(C(C)(C)C)c3)CC2)c(OC)c1OC (centres unmarked) [Example 17, 4-(2,3,4-trimethoxybenzylthio)-1-[3-(3,5-di-tert.-butyl-4-hydroxyphenoxy)-2-hydroxypropyl]piperidine]",IC50,[3],2000 nM
C=CCc1ccccc1OCC(O)CNC(C)C (centres unmarked) [Alprenolol],IC50,[8],2.1 nM
"CC(C)(Sc1cc(C(C)(C)C)c(O)c(C(C)(C)C)c1)Sc1cc(C(C)(C)C)c(O)c(C(C)(C)C)c1 [Probucol, reference compound]",activity at 10 µM,[5]; 10^-5 M,68 ± 0.9%
same,activity at 1 µM,[5]; 10^-6 M,95 ± 1.7%
same,IC50,[3],3000 nM
"COc1ccc(CSC2CCN(CCCc3cc(C(C)(C)C)c(O)c(C(C)(C)C)c3)CC2)c(OC)c1OC [Example 15, 4-(2,3,4-trimethoxybenzylthio)-1-[3-(3,5-di-tert.-butyl-4-hydroxyphenyl)propyl]piperidine]",IC50,[3],3000 nM
"COc1ccc(CSC2CCN(CCCOc3cc(C)c(O)c(C)c3C)CC2)c(OC)c1OC [Example 19, 4-(2,3,4-trimethoxybenzylthio)-1-[3-(2,3,5-trimethyl-4-hydroxyphenoxy)propyl]piperidine]",protection of cardiac cells with respect to oxidative necrosis (in words),[5],markedly superior to the anti-oxidant reference products
same,activity at 10 µM,[5]; 10^-5 M,7.9 ± 4.1%
same,activity at 1 µM,[5]; 10^-6 M,38.4 ± 13.7%
same,activity at 0.1 µM,[5]; 10^-7 M,86 ± 11.5%
same,inhibition at 1 µM,[5],≥ 50%
same,protection of human LDL's with respect to oxidative modification (in words),[3]; copper sulphate,greater ability
same,IC50,[3],300 nM
"COc1ccc(CSC2CCN(Cc3cc(C(C)(C)C)c(O)c(C(C)(C)C)c3)CC2)c(OC)c1OC [Example 13, 4-(2,3,4-trimethoxybenzylthio)-1-(3,5-di-tert.-butyl-4-hydroxybenzyl)piperidine]",protection of cardiac cells with respect to oxidative necrosis (in words),[5],markedly superior to the anti-oxidant reference products
same,activity at 10 µM,[5]; 10^-5 M,16.1 ± 5.6%
same,activity at 1 µM,[5]; 10^-6 M,52.4 ± 18.2%
same,activity at 0.1 µM,[5]; 10^-7 M,75.7 ± 19.7%
same,inhibition at 1 µM,[5],≥ 50%
same,IC50,[3],3000 nM

# Source: patent US5126356A, “Piperidine compounds” (Adir et Compagnie, priority 1989, dated 1992)
